Measured values taken from patent US20190374525A1, “TREATMENT OF DIABETES AND ASSOCIATED METABOLIC CONDITIONS WITH EPIGENETIC MODULATORS” (Temple Otorongo LLC, priority 2017, published 2019).

Assays:
Format in all cases: in vivo
[1] = tested on: leptin receptor deficient transgenic mouse model (db/db); assay: blood glucose levels in mouse model of severe type 2 diabetes and obesity; settings: for blood glucose levels: mouse model of severe type 2 diabetes and obesity, FIG. 5 (Formula (I), 11 days), FIG. 7 (Formula (II), 19 days or 29-30 days)
Method: (§1) Fed blood glucose levels were measured over a period of 28 days. Fasting glucose levels were measured on days 19, 29, and 30. Glucose clearance was measured using the glucose tolerance test on days 29 and 30. Body weight was also measured as compounds may regulate the expression of genes that are involved in obesity.

[2] = tested on: leptin receptor deficient transgenic mouse model (db/db); assay: liver enzymes (ALT and AST) in blood serum, mouse model of Type 2 diabetes and severe obesity; settings: after 29-30 days; FIG. 11
[3] = body weight in mouse model of severe type 2 diabetes and obesity; settings: after 9 days of treatment; FIG. 8
Method: as §1

Compound	fed and fasting glucose levels ([1]; after 11 days of treatment, FIG. 5)	blood glucose levels [1]	lowering of enzymes (ALT and AST) associated with liver disease measured in blood serum [2]	body weight [3]
O=C(O)c1ccnc(C(=O)O)c1 [Formula (I), 2,4-pyridinedicarboxylic acid]	decrease in fed and fasting glucose levels	significantly decrease blood glucose levels	68%	–
O=C(O)CCNc1cc(N2CCc3ccccc3CC2)nc(-c2ccccn2)n1 [Formula (II)]	–	significantly decrease blood glucose levels	–	–
CN(C)c1ccc(C(=O)NCCCCCC(=O)NO)cc1 [Formula (III)]	–	–	–	significantly decrease body weight
